According to ChEMBL document CHEMBL3507680, “University of Dundee, Gates Library screen for HepG2 cell viability”:

Assay: Human HepG2 cell viability assay in 384 well format
Assay type: toxicity, cell-based
Parameters: dose 125 nL, time 70.5 hour; concentration not given beside the values
Conditions: HepG2 cells, read-out: Inhibition

CC1CCCCN1CCNC(=O)c1ccccc1N1CCOCC1 (stereo not given)
cytotoxicity at 70.5 h: 19%

CC1Cc2ccccc2N1Cc1occc1C(=O)O (stereo not given)
cytotoxicity at 70.5 h: -5.89%

O=C(Nc1nnc(C2CC2)s1)NC1CCOc2ccccc21 (stereo not given)
cytotoxicity at 70.5 h: 22.9%

CC(C)c1nnc(NC(=O)NC2CCOc3ccccc32)s1 (stereo not given)
cytotoxicity at 70.5 h: -2.44%

CN(CC(N)=O)S(=O)(=O)c1ccc(F)cc1F
cytotoxicity at 70.5 h: -7.55%

CNC(=O)CCNC(=O)c1ccccc1N1CCOCC1
cytotoxicity at 70.5 h: -4.86%

COCCN1CCC(NC(=O)C(C)C)CC1
cytotoxicity at 70.5 h: -1.39%

CC(=O)N1CCN(CC(=O)N2CCN(c3cccc(C)c3)CC2)CC1
cytotoxicity at 70.5 h: 24.4%

CS(=O)(=O)c1ccc(OCCNCc2cccc(Cl)c2)cc1
cytotoxicity at 70.5 h: 23.8%

CNS(=O)(=O)CCCn1nnc(-c2ccc(F)c(C)c2)n1
cytotoxicity at 70.5 h: -3.63%

Cc1ccc(OCC(=O)NC2CC2)nc1
cytotoxicity at 70.5 h: -2.52%

CS(=O)(=O)c1ccc(OCCNCc2ccc(F)cc2)cc1
cytotoxicity at 70.5 h: -1.74%

CC(C)Oc1cccc(C(O)CNC(=O)NCc2cccs2)c1 (stereo not given)
cytotoxicity at 70.5 h: 3.68%

Cc1noc(C)c1CNC(=O)N1CCCC(C)CC1 (stereo not given)
cytotoxicity at 70.5 h: -3.6%

CNC(=O)CN1CCN(C(=O)Nc2ccc(Cl)cc2F)CC1
cytotoxicity at 70.5 h: -1.72%

CCN(C(=O)C(C)C)C(c1cccnc1)c1ccc2c(c1)CCO2 (stereo not given)
cytotoxicity at 70.5 h: 18.4%

CCC(=O)N(CC)C(c1cccnc1)c1ccc2c(c1)CCO2 (stereo not given)
cytotoxicity at 70.5 h: -2.76%

CCCC(=O)N(CC)C(c1cccnc1)c1ccc2c(c1)CCO2 (stereo not given)
cytotoxicity at 70.5 h: -4.67%

CN(Cc1nnc(C2CC2)n1C)C1CCN(CCc2ccncc2)C1 (stereo not given)
cytotoxicity at 70.5 h: -6%

CC(C)c1nnc(CNCC2CCCN2c2cccnn2)o1 (stereo not given)
cytotoxicity at 70.5 h: -6.87%

c1cnnc(N2CCCC2CNCc2nnc(C3CC3)o2)c1 (stereo not given)
cytotoxicity at 70.5 h: -3.19%

COc1c(CNCc2cccnc2N2CCOCC2)c(C)nn1C
cytotoxicity at 70.5 h: 1.9%

N#Cc1ccccc1C(=O)Nc1cccc(CN2CCC(CO)CC2)c1
cytotoxicity at 70.5 h: -5.53%

NC(=O)CSc1ccccc1NC(=O)C1CCCCC1
cytotoxicity at 70.5 h: 28.8%

NC(=O)CSc1ccccc1NC(=O)CC1C=CCC1 (stereo not given)
cytotoxicity at 70.5 h: 27.1%

CC(C)(C)CC(=O)Nc1ccccc1SCC(N)=O
cytotoxicity at 70.5 h: -3.84%

CC(=O)NCCCSCCOc1cccc(C#N)c1
cytotoxicity at 70.5 h: 2.91%

CC(C)(O)CN1CCN(C(=O)COC2CCCCC2)CC1
cytotoxicity at 70.5 h: 1.44%

c1csc(SCC2CN=C(N3CCOCC3)S2)c1 (stereo not given)
cytotoxicity at 70.5 h: -3.45%

Cc1ccc(CNC(=O)CN2CCN(CCO)CC2)s1
cytotoxicity at 70.5 h: -6.79%

Cc1ccc(C(O)CNC(=O)CCCc2ccccn2)o1 (stereo not given)
cytotoxicity at 70.5 h: -8.17%

CN(CC(=O)N1CCCC1c1ccccn1)Cc1ccccc1 (stereo not given)
cytotoxicity at 70.5 h: -6.16%

Cc1ccc(C(=O)N2CCOc3nc(C)ccc32)c(F)c1
cytotoxicity at 70.5 h: 26.7%

CNC(=O)COc1cccc(CNCc2c(C)noc2C)c1
cytotoxicity at 70.5 h: 10.2%

CC(C)c1nnc(NC(=O)Cc2ccc(F)cc2)[nH]1
cytotoxicity at 70.5 h: -13.1%

CNC(=O)COc1cccc(CNC(=O)c2c(C)noc2C)c1
cytotoxicity at 70.5 h: -10.6%

CN(Cc1ccc(Cl)s1)C(=O)CN1CC(n2cccn2)C1
cytotoxicity at 70.5 h: -14.6%

CSc1ccsc1C(=O)NS(=O)(=O)c1cnn(C)c1
cytotoxicity at 70.5 h: -15.6%

CCc1cc(CNC(=O)Nc2cc(F)ccc2N2CCCCC2)on1
cytotoxicity at 70.5 h: -2.62%

O=C(CN1CCSC2(CCCCC2)C1)NCC(F)(F)F
cytotoxicity at 70.5 h: -10.8%

CSc1ccsc1C(=O)NS(=O)(=O)c1ccc(F)cc1
cytotoxicity at 70.5 h: -7.27%

O=C(Nc1cc(CSCCO)ccn1)c1cc2ccccc2[nH]1
cytotoxicity at 70.5 h: 13.4%

CCOc1cccc(CCNC(=O)Cc2cccc(O)c2)n1
cytotoxicity at 70.5 h: -7.71%

CN(Cc1ccc([S+](C)[O-])cc1)c1ccc(Cl)cn1 (stereo not given)
cytotoxicity at 70.5 h: 20.8%

Cn1ncnc1CNC1CCc2cc(Cl)ccc21 (stereo not given)
cytotoxicity at 70.5 h: -19.7%

Cn1ncnc1CNC1CCCc2cc(F)ccc21 (stereo not given)
cytotoxicity at 70.5 h: -11.4%

Cc1n[nH]cc1CNC(C(=O)N1CCOCC1)c1ccccc1 (stereo not given)
cytotoxicity at 70.5 h: 15.2%

Cc1noc(C)c1CC(=O)OCc1nc(N)c2ccccc2n1
cytotoxicity at 70.5 h: -3%

Cc1cccc(C(C)(C)CNC(=O)CCSc2nnnn2C)c1
cytotoxicity at 70.5 h: -2.6%

Cc1nc(-c2ccccc2)n(CC(=O)NC(C)C2CC2)n1 (stereo not given)
cytotoxicity at 70.5 h: -5.73%

Cc1nc(-c2ccccc2C)n(CC(=O)NC(C)C)n1
cytotoxicity at 70.5 h: 12.9%

Cc1ccccc1C(C)(C)CNC(=O)CCSc1nnnn1C
cytotoxicity at 70.5 h: -1.67%

Cc1ccc(CNc2ccc(C(=O)N3CCNC(=O)C3)cn2)cc1
cytotoxicity at 70.5 h: 4.12%

CC(C)n1cc(S(=O)(=O)NCCc2nnc3ccccn23)cn1
cytotoxicity at 70.5 h: 5.41%

COc1cccc(CNC(=O)Nc2ccc3[nH]nnc3c2)c1OC
cytotoxicity at 70.5 h: -9.41%

O=S(=O)(NCCc1nnc2ccccn12)c1cccnc1
cytotoxicity at 70.5 h: 14.7%

N#Cc1ccc(N2CCN(c3cnccn3)CC2)c(C(F)(F)F)c1
cytotoxicity at 70.5 h: 2.94%

Cn1cnnc1-c1cncc(NCc2cccc3c2OCO3)c1
cytotoxicity at 70.5 h: -1.67%

Cc1cc(=O)c(C(=O)Nc2cccc(CCN3CCCC3)c2)c[nH]1
cytotoxicity at 70.5 h: -2.1%

CC(=O)c1ccc(NC(=O)NCc2cccc(N(C)C)n2)cc1C
cytotoxicity at 70.5 h: -1.51%

O=S(=O)(c1cccnc1)N1CCC(OCCCc2ccccc2)C1 (stereo not given)
cytotoxicity at 70.5 h: -0.248%

Cc1ccc(F)c(C(=O)Nc2cccc(CCN3CCCC3)c2)c1
cytotoxicity at 70.5 h: -1.18%

Cc1ccc(S(=O)(=O)N2CCn3nc(C)nc3C2)c(Cl)c1
cytotoxicity at 70.5 h: -2.97%

C1CCN(CCOC2CCNCC2)C1
cytotoxicity at 70.5 h: -2.17%

N#CCCN(Cc1cccnc1)C(=O)c1ccc(-n2cnnn2)cc1
cytotoxicity at 70.5 h: -12.1%

Cn1cnnc1CNC(=O)C1CCCN(Cc2cccc(F)c2)C1 (stereo not given)
cytotoxicity at 70.5 h: -13.7%

O=C(Cn1nnc(-c2cc3ccccc3o2)n1)N1CCOCC1
cytotoxicity at 70.5 h: -18.1%

O=C1CCC(C(=O)NCCOc2cccc(Cl)c2Cl)CN1 (stereo not given)
cytotoxicity at 70.5 h: -13.1%

CC(C)CNC(=O)c1ccc(NC(=O)NC(C)C)cc1Cl
cytotoxicity at 70.5 h: -11.5%

Cc1nc(NC(=O)C2CCCN(C(=O)C3CC3)C2)sc1C (stereo not given)
cytotoxicity at 70.5 h: -14.8%

CNC(=O)Cn1nnc(-c2cc3ccccc3o2)n1
cytotoxicity at 70.5 h: -5.34%

O=C(CCc1ccc(F)cc1)NCc1ccnc(NC2CC2)c1
cytotoxicity at 70.5 h: -2.2%

Cc1ncc2c(n1)CCCC2NC(=O)c1ccccc1Cn1cncn1 (stereo not given)
cytotoxicity at 70.5 h: 18.1%

CC(C)C(=O)NCCNC(=O)C12CCC(=O)N1c1cc(Cl)ccc1S2 (stereo not given)
cytotoxicity at 70.5 h: -1.8%

Cc1cccc(N(CC(=O)N2CCCCC2)Cc2ccno2)c1
cytotoxicity at 70.5 h: -5.71%

OCCN(Cc1nc(-c2ccc3c(c2)OCO3)no1)CC1CC1
cytotoxicity at 70.5 h: 4.42%

Cc1ncc(CNCC(=O)NCC(F)(F)F)n1-c1ccccc1
cytotoxicity at 70.5 h: -5.37%

CC(C)C(=O)N1CCCN(C(=O)NC2CCc3ccccc3C2)CC1 (stereo not given)
cytotoxicity at 70.5 h: -4.48%

COc1cccc(NC(=O)CNc2ccc(C(=O)N(C)C)c(Cl)c2)c1
cytotoxicity at 70.5 h: -4.79%

CCOC(=O)Cn1ccc2cc(NC(=O)N3CCSCC3)ccc21
cytotoxicity at 70.5 h: 1.82%

Cc1csc(N2CCN(Cc3ccn(C)c(=O)c3)CC2)n1
cytotoxicity at 70.5 h: -5.98%

c1cnc(N2CCN(Cn3nccc3-c3cccnc3)CC2)nc1
cytotoxicity at 70.5 h: 5.37%

CC(C)(C)CCN1CCN(Cn2nccc2-c2cccnc2)CC1
cytotoxicity at 70.5 h: 0.907%

Cn1cc(CCCNC(=O)NC2CCN(c3ccccc3)C2=O)cn1 (stereo not given)
cytotoxicity at 70.5 h: -5.19%

CCc1ccc(C(=O)Nc2cc(N3CCNC3=O)ccc2Cl)o1
cytotoxicity at 70.5 h: -5.46%

Cn1cc(CCCNC(=O)NC2CCN(CC(F)(F)F)C2=O)cn1 (stereo not given)
cytotoxicity at 70.5 h: -3.21%

Cc1ccc(CCNC(=O)NC2CCN(CC(F)(F)F)C2=O)cn1 (stereo not given)
cytotoxicity at 70.5 h: -5.39%

N#Cc1c(F)cccc1NCCCOCC1CCOC1 (stereo not given)
cytotoxicity at 70.5 h: -0.771%

N#Cc1cc(F)c(NCCCOCC2CCOC2)c(F)c1 (stereo not given)
cytotoxicity at 70.5 h: 7.98%

N#Cc1ccc(NCCCOCC2CCCO2)c(F)c1 (stereo not given)
cytotoxicity at 70.5 h: 2%

COCC(NC(=O)NCc1cccc(Cl)c1)c1ccco1 (stereo not given)
cytotoxicity at 70.5 h: -5.77%

Cc1cc(NS(=O)(=O)c2cnc3onc(C)c3c2)no1
cytotoxicity at 70.5 h: 0.112%

CN(C)CCN(Cc1ccco1)C(=O)Cc1cn2ccsc2n1
cytotoxicity at 70.5 h: -3.81%

COCC(NC(=O)NCc1sccc1C)c1ccco1 (stereo not given)
cytotoxicity at 70.5 h: 1.36%

COc1ccc(C(C)(C)C(=O)NCc2n[nH]c(=O)[nH]2)cc1
cytotoxicity at 70.5 h: -1.62%

COc1ccc(S(=O)(=O)NC(=O)c2ccccc2F)cc1OC
cytotoxicity at 70.5 h: 1.07%

c1cncc(-c2ccnn2CN2CCOCC2)c1
cytotoxicity at 70.5 h: 0.876%

O=C(Cc1cn2ccsc2n1)N(Cc1ccco1)CC1CCCO1 (stereo not given)
cytotoxicity at 70.5 h: 7.91%

COC(C)(C)CC(C)NC(=O)NC1CCN(Cc2ccccn2)CC1 (stereo not given)
cytotoxicity at 70.5 h: -0.855%

Cc1ccc(NC(=O)N(C)CC(O)COCCOC(C)C)c(Br)c1 (stereo not given)
cytotoxicity at 70.5 h: -4.27%

O=C(NCc1cc[nH]n1)N1CCC(Oc2ccccc2Cl)CC1
cytotoxicity at 70.5 h: 8.97%

Cc1csc(C2(NCC(O)COc3ccc(F)cc3)CCC2)n1 (stereo not given)
cytotoxicity at 70.5 h: -0.482%

COCC1CN(C(=O)Nc2cc(-n3cccc3)ccc2F)CCO1 (stereo not given)
cytotoxicity at 70.5 h: 7.34%

COc1ccccc1CN(C)c1nc2c(cnn2C)c(=O)[nH]1
cytotoxicity at 70.5 h: -10.3%

COc1ccc(CN(C)c2nc3c(cnn3C)c(=O)[nH]2)c(OC)c1
cytotoxicity at 70.5 h: 18.3%

CS(=O)(=O)c1nnc(NC(=O)CCc2ccc(Cl)s2)[nH]1
cytotoxicity at 70.5 h: -10.2%

COc1ccc(OC)c(CN(C)c2nc3c(cnn3C)c(=O)[nH]2)c1
cytotoxicity at 70.5 h: 42.4%

CC(C)N(C)CCNC(=O)NCc1ccccc1-n1cccn1
cytotoxicity at 70.5 h: -7.41%

Cc1ccc(C)c(OCc2nnc(SCC3CCCN(C)C3)o2)c1 (stereo not given)
cytotoxicity at 70.5 h: -5.12%

Cc1ccc(OCC(=O)N(C)Cc2cccc(F)c2)cn1
cytotoxicity at 70.5 h: -3.84%

COc1ccc(Br)cc1CN(C)c1nc2c(cnn2C)c(=O)[nH]1
cytotoxicity at 70.5 h: -10.6%

O=C(Cc1ccc(Cl)cc1)N1CCC(O)(C(F)(F)F)C1 (stereo not given)
cytotoxicity at 70.5 h: -2.11%

CN(CCn1cccn1)c1cc(C(F)(F)F)nc(-c2cccnc2)n1
cytotoxicity at 70.5 h: -4.93%

Cn1c(SCC2OCCc3ccccc32)n[nH]c1=O (stereo not given)
cytotoxicity at 70.5 h: -8.09%

O=C(N1CCC(O)(C(F)(F)F)C1)C1(c2cccc(Cl)c2)CC1 (stereo not given)
cytotoxicity at 70.5 h: -9.29%

O=C(CCc1ccc(Cl)cc1)N1CCC(O)(C(F)(F)F)C1 (stereo not given)
cytotoxicity at 70.5 h: -6.2%

Cn1cccc(NC(=O)N2CCC(Cc3ccccc3)C2)c1=O (stereo not given)
cytotoxicity at 70.5 h: 19.7%

CCCn1nc(-c2nc(C3CC3)no2)ccc1=O
cytotoxicity at 70.5 h: 5.03%

NCCNS(=O)(=O)Cc1ccc(Br)cc1
cytotoxicity at 70.5 h: -0.385%

NCCCNS(=O)(=O)Cc1ccc(Br)cc1
cytotoxicity at 70.5 h: -9.57%
